{"source": "patent US20110192396A1", "about": "“PHARMACEUTICAL COMPOSITION FOR PREVENTING OR TREATING CHRONIC OBSTRUCTIVE PULMONARY DISEASE” (DAEWOONG CO., LTD., priority 2008, published 2011)", "key": {"[1]": {"test_system": "MUC5AC gene expression in NCI-H292 cells", "assay": "Suppression of MUC5AC mucus gene expression in PA-LPS/TGF-α-treated NCI-H292 cells (real time PCR)", "format": "cell-based, human", "settings": "50 ng/mL EGF; NCI-H292 cells pre-treated with PA-LPS and TGF-α for 6 hours; vs control with PA-LPS and TGF-α only", "method": "NCI-H292 cells (ATCC, CRL-1848) were divided into a 6-well plate such that the number of the NCI-H292 cells per well was 10^6. The NCI-H292 cells were incubated in a 5% CO2 incubator at 37° C. for one day. The NCI-H292 cells were incubated in a serum free medium for one day, and then treated with 100 mg/mL of Pseudomonas aeruginosa lipopolysaccharide (PA-LPS, Sigma L8643) and 10 ng/mL of a transforming growth factor-alpha (TGF-α R&D systems 239-a-100) at the same time for 6 hours to induce overexpression of MUC5AC mucus. The PA-LPS and TGF-α were removed, and epidermal growth factors (EGFs) having different concentrations were added to the NCI-H292 cells. […]\nRNA was isolated using a kit manufactured by QIAGEN (RNeasy Plus Mini Kit, 74134) according to the manuals provided by the manufacturer in order to isolate entire RNA. Absorbance of the isolated RNA was measured using a spectrophotometer at a wavelength of 260 nm to quantitatively analyze RNA. […]\nA SYBR green assay was performed by adding cDNA, a forward primer, and a reverse primer to 12.5 mL of a SYBR green PCR master mix (Applied Biosystems, 4309155) such that the total volume of the mixture was set to 25 mL. […] The determined concentrations of the primers for MUC5AC, ICAM-1, RPL1 were respectively 900 nM, and the concentration β-ACT thereof was 300 nM. […]"}, "MLE-12 cells": {"test_system": "MLE-12 cells", "assay": "Protection of alveolar cells from elastase cell toxicity, neutral red uptake (NRU) assay", "format": "cell-based, murine", "settings": "100 μg/mL EGF; 2 U/mL elastase; elastase only = 100%, medium only = 0% cell toxicity", "protocol": "MLE-12 cells were divided into a 96-well plate such that the number of MLE-12 cells per well was […]. The MLE-12 cells were incubated in 5% CO2 incubator at 37° C. for one day. […] A neutral red uptake (NRU) assay was performed using a neutral red that dyes only living cells to measure the degree of cell death. […] The cells were fixed using a fixing solution (1% formaldehyde, 1% CaCl2) for 1 minute, and the neutral red dye reagent was extracted using a chromogenic solution including 50% ethanol and 1% glacial acetic acid. Then, light absorbance was measured at a wavelength of 540 nm."}, "[2]": {"test_system": "PPE-induced emphysema model", "assay": "PPE-induced rat emphysema model, histopathological examination of lung and trachea", "format": "in vivo, Sprague-Dawley rats", "protocol": "6-week old male Sprague-Dawley rats (Japan SLC, Inc) having an average weight ranging from 200 to 250 g were accommodated for 1 week to prepare 7-week old rats. The rats were raised in individual ventilated cage (IVC) racks (GR900 plus rat cage, Polysulfone, 355 W×405 I×230 H mm) at a constant temperature (22±3° C.) at a constant relative humidity (55±15%) using fluorescent lamps (lights are on 08:00 to 20:00) for 12 hours, and food and water were fed ad libitum (solid feed 5L79, Orient Co., Ltd.). 120 U/kg, 1 mL/kg of pig pancreas elastase (PPE, Merck 324682) was administered once by intratracheal instillation to rats anesthetized with isoflurane. 1 mL/kg of 0.9% saline was administered once by intratracheal instillation to rats in the group in which emphysema was not induced. In order to uniformly administer test article into lung cavity, the same amount of air as the administered substances was administered during the intratracheal instillation. […] After 7 weeks from the PPE administration, the rats were anesthetized with isoflurane, and the lung and the trachea were isolated and fixed using 10% neutral formalin. Then histopathological examination of the lung and the trachea were performed and microscopic images were obtained. The test results were represented as average ±standard deviation. In order to detect a test group statistically significant from a control group, the results were statistically tested using one way ANOVA, and significance was analyzed using a multiple comparison method. […] In addition, FIGS. 7 and 8 illustrated the results of the tissue pathological tests of tracheas and lungs with a table."}, "[3]": {"settings": "G3: 0.1 mg/kg EGF intratracheal instillation, once a week for 3 weeks, rats"}}, "data": [{"substance": "EGF: recombinant proteins having the same amino acid sequence as natural human epidermal growth factor (hEGF); 53 amino acids, SEQ ID NO: 1", "values": [{"measurement": "reduction of expression of MUC5AC", "setting": "[1]", "result": 65, "unit": "%"}, {"measurement": "reduction of cell toxicity", "setting": "MLE-12 cells", "result": "about 15%"}, {"measurement": "degree and number of enlargement and breakdown of alveoli compared with the control group of PPE-induced emphysema model", "setting": "[2]; G3, group with emphysema treated with EGF", "result": "reduced"}, {"measurement": "cases with mild breakdown of alveoli", "setting": "[2]; [3]", "result": 3, "unit": "cases"}, {"measurement": "cases with mild enlargement of alveoli", "setting": "[2]; [3]", "result": 3, "unit": "cases"}, {"measurement": "cases with moderate breakdown of alveoli", "setting": "[2]; [3]", "result": 1, "unit": "case"}, {"measurement": "cases with moderate enlargement of alveoli", "setting": "[2]; [3]", "result": 1, "unit": "case"}, {"measurement": "cases with very mild breakdown of alveoli", "setting": "[2]; [3]", "result": 1, "unit": "case"}, {"measurement": "cases with very mild enlargement of alveoli", "setting": "[2]; [3]", "result": 2, "unit": "cases"}, {"measurement": "cases with very mild histiocytosis", "setting": "[2]; [3]", "result": 1, "unit": "case"}]}]}
